The values that follow come from US9120749B2, “Quinoline derivatives and MELK inhibitors containing the same” (ONCOTHERAPY SCIENCE, INC., priority 2010, dated 2015).

Counter-ions that a name gives are not always drawn. Like-named read-outs stand apart in the source and are kept apart here.

One test addresses MELK (Homo sapiens, UniProt Q14680). As to the kind of experiment: Kinase assay: MELK activity, phosphorylation of FITC-labeled histone H3 peptide measured by IMAP fluorescence polarization. The following applies: 50 micro-M ATP, FITC-labeled histone H3 peptide substrate, IMAP fluorescence polarization, read-out: IC50 (μM) (kinase assay). The test is classed as biochemical. A digest of the protocol: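 Compounds, serially diluted from 12.5 mM DMSO stocks to 1% final DMSO, were tested with FITC-labeled histone H3 peptide as substrate. The reaction was stopped with progressive binding solution. Fluorescence polarization was read after 0.5 hour at room temperature.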
Background: In fluorescence polarisation assays a small probe gives low polarisation when free and higher when bound to something large.

For another test, the system named is A549 cells. Put plainly: Cell-based assay: anti-proliferative activity, Cell Counting Kit-8, 72 hours (A549). As to conditions: MELK-expressing, Cell Counting Kit-8 at 72 hours. The essentials:
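Cell Counting Kit-8 read-out of A549 growth after 72 hours of inhibitor exposure, cells plated in 96-well format. Values reported as IC50.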
In general terms: Formazan colour is commonly taken as a measure of viable cells.

A further test concerns BT-549 cells. As to the kind of experiment: Cell-based assay: anti-proliferative activity, Cell Counting Kit-8, 72 hours (BT-549). As to conditions: BT549 cells, MELK-expressing, Cell Counting Kit-8 at 72 hours. The method, then:
To evaluate the expression status of MELK in several cell lines, western blot analysis was performed using crude cell lysate collected from those cells. Anti-MELK antibody (clone 31, BD Biosciences) was used to visualize the expression.
Active candidate inhibitors against MELK were evaluated for their target-specific cytotoxicity using T47D, A549, BT-549, and HT-1197 cells was used for negative control. 100 micro-L of cell suspension was seeded onto 96-well microtiter plate (ViewPlate-96FTC, PerkinElmer). The initial cell concentration of T47D, A549, BT-549, and HT-1197 were 3,000 cells/well, 2,000 cells/well and 2,500 cells/well, respectively. Cellular growth was determined using Cell Counting Kit-8 (DOJINDO) at 72 hours after the exposure of the candidate inhibitors. […] Accurate IC50 values were calculated as described previously.

In a further test the test system is T47D cells. As to the kind of experiment: Cell-based assay: anti-proliferative activity, Cell Counting Kit-8, 72 hours (T47D). As to conditions: MELK-expressing, Cell Counting Kit-8 at 72 hours. The essentials: (§1)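 Anti-MELK western blot on crude lysates → MELK status per line. Cells plated 96-well, compound exposure, CCK-8 readout at 72 h; IC50 calculated.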
The subject of a further test is HT-1197 cells. Put plainly: Cell-based assay: anti-proliferative activity, Cell Counting Kit-8, 72 hours (HT-1197, negative control without MELK expression). The following applies: HT1197 cells, no MELK expression (negative control), Cell Counting Kit-8 at 72 hours. The essentials: as §1

MELK, sequence (Q14680 whole entry, looked up): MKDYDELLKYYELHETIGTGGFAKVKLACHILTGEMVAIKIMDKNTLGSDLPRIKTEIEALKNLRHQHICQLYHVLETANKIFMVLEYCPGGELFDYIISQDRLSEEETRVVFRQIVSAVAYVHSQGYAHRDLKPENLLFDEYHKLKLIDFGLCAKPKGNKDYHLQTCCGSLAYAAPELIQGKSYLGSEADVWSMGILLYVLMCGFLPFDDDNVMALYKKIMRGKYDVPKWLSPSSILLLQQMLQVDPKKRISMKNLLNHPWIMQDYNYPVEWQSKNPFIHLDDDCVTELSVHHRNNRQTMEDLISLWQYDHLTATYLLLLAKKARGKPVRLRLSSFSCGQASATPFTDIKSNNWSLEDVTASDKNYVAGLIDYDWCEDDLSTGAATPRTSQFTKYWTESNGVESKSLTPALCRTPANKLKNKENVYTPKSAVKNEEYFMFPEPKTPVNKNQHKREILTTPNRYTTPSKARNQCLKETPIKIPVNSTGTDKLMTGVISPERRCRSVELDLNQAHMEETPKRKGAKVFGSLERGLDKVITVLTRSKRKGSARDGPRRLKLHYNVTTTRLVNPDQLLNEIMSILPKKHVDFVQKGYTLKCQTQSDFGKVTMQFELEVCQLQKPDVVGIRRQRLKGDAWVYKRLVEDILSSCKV

The term IC50 denotes the midpoint of a concentration-inhibition curve. For `N[C@H]1CC[C@@H](Nc2c(C(=O)C3CC3)cnc3ccc(-c4cc(F)c(O)c(F)c4)cc23)CC1` [Example 180, [4-(cis-4-Aminocyclohexylamino)-6-(3,5-difluoro-4-hydroxyphenyl)quinolin-3-yl](cyclopropyl)methanone], the half-maximal inhibitory concentration (IC50) at MELK turned out to be 0.0026 µM; in the test on A549 cells (Homo sapiens, A549, 72 h) it was 0.9 µM; with BT-549 cells (Homo sapiens, BT-549, 72 h) it was 0.3 µM; in the test on T47D cells (Homo sapiens, T47D, 72 h) it was 0.17 µM; in the test on HT-1197 cells (Homo sapiens, HT1197, 72 h), 4.5 µM.
For the molecule `CC(C1CCN(c2c(C(=O)C3CC3)cnc3ccc(-c4cc(F)c(O)c(F)c4)cc23)CC1)N(C)C` (stereo not drawn) [Example 181, Cyclopropyl[6-(3,5-difluoro-4-hydroxyphenyl)-4-{4-[1-(dimethylamino)ethyl]piperidin-1-yl}quinolin-3-yl]methanone], the 50% inhibitory concentration (IC50) is 0.011 µM at MELK; 0.7 µM in the test on A549 cells (Homo sapiens, A549, 72 h); 0.73 µM in the test on BT-549 cells (Homo sapiens, BT-549, 72 h); 0.47 µM in the test with T47D cells (Homo sapiens, T47D, 72 h); 1.1 µM with HT-1197 cells (Homo sapiens, HT1197, 72 h).
For the molecule `CCN(CC)C1CCC(Nc2c(C(=O)C3CC3)cnc3ccc(-c4cc(Cl)c(O)c(OC)c4)cc23)CC1` (stereo not drawn) [Example 185(a), {6-(3-Chloro-4-hydroxy-5-methoxyphenyl)-4-[4-(diethylamino)cyclohexylamino]quinolin-3-yl}(cyclopropyl)methanone], the IC50 came out at 0.0026 µM at MELK; 0.42 µM in the test on A549 cells; 2 µM in the test on BT-549 cells (Homo sapiens, BT-549, 72 h); 0.59 µM with T47D cells (Homo sapiens, T47D, 72 h); 6.9 µM with HT-1197 cells (Homo sapiens, HT1197, 72 h).
On to `COc1cc(-c2ccc3ncc(C(=O)C4CC4)c(N4CCC(C(C)N(C)C)CC4)c3c2)ccc1O` (stereo not drawn) [Example 187, Cyclopropyl(4-{4-[1-(dimethylamino)ethyl]piperidin-1-yl}-6-(4-hydroxy-3-methoxyphenyl)quinolin-3-yl)methanone], for which the IC50 on MELK stood at 0.0034 µM; in the test on A549 cells (Homo sapiens, A549, 72 h) it was 0.65 µM; in the test with BT-549 cells (Homo sapiens, BT-549, 72 h), 2 µM; in the test with T47D cells (Homo sapiens, T47D, 72 h), 0.44 µM; in the test on HT-1197 cells (Homo sapiens, HT1197, 72 h), 2.2 µM.
Take `CCN(CC)C1CCC(Nc2c(C(=O)C3CC3)cnc3ccc(-c4ccc(O)c(Cl)c4)cc23)CC1` (stereo not drawn) [Example 192, {6-(3-Chloro-4-hydroxyphenyl)-4-[4-(diethylamino)cyclohexylamino]quinolin-3-yl}(cyclopropyl)methanone]: the IC50 came out at 0.011 µM at MELK; 0.42 µM in the test with A549 cells (Homo sapiens, A549, 72 h); 1.3 µM in the test on BT-549 cells (Homo sapiens, BT-549, 72 h); 0.57 µM in the test with T47D cells (Homo sapiens, T47D, 72 h); 2.2 µM in the test with HT-1197 cells (Homo sapiens, HT1197, 72 h).
Regarding `CCN(CC)C1CCC(Nc2c(C(=O)C3CC3)cnc3ccc(-c4ccc(O)c(OC)c4)cc23)CC1` (stereo not drawn) [Example 193, Cyclopropyl{4-[4-(diethylamino)cyclohexylamino]-6-(4-hydroxy-3-methoxyphenyl)quinolin-3-yl}methanone], the IC50 is 0.007 µM on MELK; 0.59 µM with A549 cells (Homo sapiens, A549, 72 h); 2 µM with BT-549 cells (Homo sapiens, BT-549, 72 h); 0.52 µM with T47D cells (Homo sapiens, T47D, 72 h); 4.2 µM in the test with HT-1197 cells (Homo sapiens, HT1197, 72 h).
For `COc1cc(-c2ccc3ncc(C(=O)C4CC4)c(NCC4CCN(C)CC4)c3c2)cc(Cl)c1O` [Example 201, {6-(3-Chloro-4-hydroxy-5-methoxyphenyl)-4-[(1-methylpiperidin-4-yl)methylamino]quinolin-3-yl}(cyclopropyl)methanone], the IC50 came to 0.0034 µM on MELK; 0.73 µM in the test with A549 cells (Homo sapiens, A549, 72 h); 1.8 µM in the test on BT-549 cells (Homo sapiens, BT-549, 72 h); 0.76 µM in the test on T47D cells (Homo sapiens, T47D, 72 h); 7.4 µM in the test on HT-1197 cells (Homo sapiens, HT1197, 72 h).
For `CC(C)C(=O)c1cnc2ccc(-c3cc(F)c(O)c(Cl)c3)cc2c1N[C@H]1CC[C@H](N)CC1` [Example 205, 1-{4-[trans-4-Aminocyclohexylamino]-6-(3-chloro-5-fluoro-4-hydroxyphenyl)quinolin-3-yl}-2-methylpropan-1-one] the same measures were 0.01 µM, 0.6 µM, 0.15 µM, 0.066 µM and 2.4 µM.
Regarding `N[C@H]1CC[C@H](Nc2c(C(=O)C3CC3)cnc3ccc(-c4ccncc4)cc23)CC1` [Example 212, {4-[trans-4-Aminocyclohexylamino]-6-(pyridin-4-yl)quinolin-3-yl}(cyclopropyl)methanone], the IC50 at MELK was found to be 0.054 µM; in the test with A549 cells (Homo sapiens, A549, 72 h), 0.99 µM; in the test with BT-549 cells (Homo sapiens, BT-549, 72 h), 2.5 µM; with T47D cells (Homo sapiens, T47D, 72 h), 2.7 µM; in the test on HT-1197 cells (Homo sapiens, HT1197, 72 h), 7.2 µM.
The corresponding values for `N[C@H]1CC[C@H](Nc2c(C(=O)C3CC3)cnc3ccc(-c4cn[nH]c4)cc23)CC1` [Example 213, {4-[trans-4-Aminocyclohexylamino]-6-(1H-pyrazol-4-yl)quinolin-3-yl}(cyclopropyl)methanone] are 0.067 µM, 5.1 µM, 1.7 µM, 0.89 µM and 14 µM.
Turning to `CC(C)C(=O)c1cnc2ccc(-c3cc(F)c(O)c(F)c3)cc2c1N[C@H]1CC[C@H](N)CC1` [Example 214, 1-{4-[trans-4-Aminocyclohexylamino]-6-(3,5-difluoro-4-hydroxyphenyl)quinolin-3-yl}-2-methylpropan-1-one], the IC50 on MELK is 0.043 µM; in the test on A549 cells (Homo sapiens, A549, 72 h), 0.65 µM; in the test with BT-549 cells (Homo sapiens, BT-549, 72 h) it was 0.084 µM; in the test with T47D cells (Homo sapiens, T47D, 72 h) it was 0.048 µM; in the test on HT-1197 cells (Homo sapiens, HT1197, 72 h) it was 1.4 µM.
In the case of `O=C(c1cnc2ccc(-c3ccc(O)c(Cl)c3)cc2c1NCCN1CCNCC1)C1CC1` [Example 215, {6-(3-Chloro-4-hydroxyphenyl)-4-[2-(piperazin-1-yl)ethylamino]quinolin-3-yl}(cyclopropyl)methanone], the half-inhibitory concentration (IC50) stood at 0.017 µM at MELK; 1.2 µM in the test on A549 cells (Homo sapiens, A549, 72 h); 1.5 µM with BT-549 cells (Homo sapiens, BT-549, 72 h); 0.92 µM with T47D cells (Homo sapiens, T47D, 72 h); 3.9 µM in the test with HT-1197 cells (Homo sapiens, HT1197, 72 h).
As for `CC(C)C(=O)c1cnc2ccc(-c3ccc(O)c(Cl)c3)cc2c1N[C@H]1CC[C@H](N)CC1` [Example 219, 1-{4-[trans-4-Aminocyclohexylamino]-6-(3-chloro-4-hydroxyphenyl)quinolin-3-yl}-2-methylpropan-1-one], the IC50 was determined as 0.023 µM on MELK; 0.32 µM in the test on A549 cells (Homo sapiens, A549, 72 h); 0.25 µM in the test on BT-549 cells (Homo sapiens, BT-549, 72 h); 0.11 µM with T47D cells (Homo sapiens, T47D, 72 h); 1.2 µM with HT-1197 cells (Homo sapiens, HT1197, 72 h).
For `CC(C)C(=O)c1cnc2ccc(-c3cc(Cl)c(O)c(Cl)c3)cc2c1N[C@H]1CC[C@H](N)CC1` [Example 225(a), 1-{4-[trans-4-Aminocyclohexylamino]-6-(3,5-dichloro-4-hydroxyphenyl)quinolin-3-yl}-2-methylpropan-1-one] the same measures were 0.0025 µM, 0.43 µM, 0.18 µM, 0.073 µM and 2 µM.
As to `CC(C)C(=O)c1cnc2ccc(-c3cc(Cl)c(O)c(Cl)c3)cc2c1N[C@H]1CC[C@H](N)CC1` [Example 225(b), 1-{4-[trans-4-Aminocyclohexylamino]-6-(3,5-dichloro-4-hydroxyphenyl)quinolin-3-yl}-2-methylpropan-1-one dihydrochloride], the IC50 on MELK (dihydrochloride) came out at 0.0028 µM; in the test on A549 cells (dihydrochloride), 0.22 µM; in the test on BT-549 cells (dihydrochloride), 0.17 µM; in the test with T47D cells (dihydrochloride), 0.048 µM; in the test with HT-1197 cells (dihydrochloride) it was 1.6 µM.
Take `CCN(CC)C1CCC(Nc2c(S(C)(=O)=O)cnc3ccc(-c4cc(Cl)c(O)c(OC)c4)cc23)CC1` (stereo not drawn) [Example 240, 2-Chloro-4-{4-[4-(diethylamino)cyclohexylamino]-3-(methylsulfonyl)quinolin-6-yl}-6-methoxyphenol dihydrochloride]: the IC50 on MELK amounted to 0.0053 µM; in the test on A549 cells (Homo sapiens, A549, 72 h), 0.78 µM; with BT-549 cells (Homo sapiens, BT-549, 72 h), 1.5 µM; in the test with T47D cells (Homo sapiens, T47D, 72 h), 0.97 µM; in the test on HT-1197 cells (Homo sapiens, HT1197, 72 h), 3.8 µM.
Turning to `COc1cc(-c2ccc3ncc(C(=O)C4CC4)c(NCC4CCNCC4)c3c2)cc(Cl)c1O` [Example 243], the IC50 at MELK was 0.0044 µM; in the test with A549 cells (Homo sapiens, A549, 72 h), 0.62 µM; in the test with BT-549 cells (Homo sapiens, BT-549, 72 h) it was 1.8 µM; with T47D cells (Homo sapiens, T47D, 72 h), 0.33 µM; in the test with HT-1197 cells (Homo sapiens, HT1197, 72 h) it was 7.3 µM.
For `COc1cc(-c2ccc3ncc(S(C)(=O)=O)c(N4CCC(C(C)N(C)C)CC4)c3c2)cc(Cl)c1O` (stereo not drawn) [Example 245, 2-Chloro-4-[4-{4-[1-(dimethylamino)ethyl]piperidin-1-yl}-3-(methylsulfonyl)quinolin-6-yl]-6-methoxyphenol], the IC50 at MELK turned out to be 0.0016 µM; in the test with A549 cells (Homo sapiens, A549, 72 h) it was 0.25 µM; in the test with BT-549 cells (Homo sapiens, BT-549, 72 h), 0.74 µM; with T47D cells (Homo sapiens, T47D, 72 h) it was 0.35 µM; in the test on HT-1197 cells (Homo sapiens, HT1197, 72 h), 2.3 µM.
